The text below walks through data of patent US20120041009A1, “PYRIMIDINE COMPOUND AND ITS USE IN PEST CONTROL” (SUMITOMO CHEMICAL COMPANY, LIMITED, priority 2009, published 2012).

The experiment concerns Tetranychus urticae. Kind of experiment: Test Example 2: spray test against Tetranychus urticae on brush bean (Phaseolus vulgaris). Conditions: comparative compound, same conditions as in Test Example 2 (500 ppm); day not given. The format is in vivo. The protocol:
The formulation of each of the present compounds (1), (3), (5), (7) to (11), (13), (14), (18), (20), (22), (24), (26), (27), (29), (30) and (33) to (35) obtained in Formulation Example 1 was diluted with water so as to adjust the concentration of the active ingredient to 500 ppm to prepare a test spray solution.
About sixty female imagines of Tetranychus urticae were released on brush bean (Phaseolus vulgaris) in the primary leaf stage, which had been potted in a polyethylene cup for 7 days after the seeding. One day after release of female imagines of Tetranychus urticae, 30 ml (per cup) of the test spray solution was sprayed over the brush bean seedling.
On the 8th and 13th day after spraying, the numbers of survival Tetranychus urticae on the leaf of the brush bean plant were examined, and the control rate was calculated by the following equation.
Control rate=100×{1−(number of survival Tetranychus urticae in treated section)/(number of survival Tetranychus urticae in non-treated section)}

Regarding `O=c1[nH]c(-c2cncnc2C(F)(F)F)no1` [comparative compound (C)], the control value entry is “less than 30%”.
